Patent US8633308B2, “Compounds for preventing or treating viral infections and methods of use thereof” (The Governors of The University of Alberta, priority 2007, dated 2014)
pIC50: −log10 of the molar value. Where “and” joins values, the source holds several entries; their conditions need not be identical. Identical values can stand only once. Entries after “also recorded” stand apart in the source; their conditions may differ. Like-named read-outs stand apart in the source and are kept apart here.

Tests used:
Vero cells [1] = test: Cytotoxic/cytostatic effects, trypan blue exclusion cell counts; settings: for cytotoxicity (in words): cultured cells
HSV-1 KOS [2] = test: HSV-1 infectivity plaque assay, virions pretreated with compound, Vero cells; format: cell-based, herpes simplex virus type 1; settings: for IC50: Table 1, read-out: IC50 (μM) on infectivity of HSV-1 on Vero cells; for potency compared with dUY11: infections of cultured cells
HSV-1 KOS [3] = test: HSV-1 entry, RFP reporter under HSV-1 ICP0 IE promoter in Vero cells; format: cell-based, herpes simplex virus type 1; settings: virions pretreated with 2 μM; 24 hpi
VSV = format: cell-based, vesicular stomatitis virus; settings: virions pretreated 5 minutes at 37° C.; Vero cells; read-out: IC50, infectivity of VSV
HSV-1 KOS [4] = test: Infectivity of progeny virions produced by treated infected Vero cells, plaque assay; format: cell-based, herpes simplex virus type 1
Protocol: Virions produced by cells infected and treated with said compounds after infection should therefore not be as infectious as virions produced by untreated cells. FIG. 16A is a line graph showing the reduction in infectivity of virions produced by cells treated with amphipathic nucleoside derivatives for 24 hours and plotted against drug concentration. Vero cells were infected with HSV-1 KOS at a multiplicity of infection (MOI) of 3 PFU/cell. […] Cells were harvested at 24 hpi and viral infectivity was evaluated by standard plaque assays. Error bars represent ranges of 3 or more experiments. The virions produced in the presence of dUY11 were 8 orders of magnitude less infectious than those produced by untreated cells (FIG. 16A). The experiments were then repeated, but limiting the exposure of the infected cells to dUY11 to only 1 hour, immediately after removing the viral inoculum (FIG. 16B). […] Infected cells were then incubated without drug for 22 h, then the infectivity of the progeny virions was assessed. […] Therefore, dUY11 interacts with pre-existing cellular factors that are incorporated into virions, such as membrane lipids.

HSV-1 KOS [5] = test: HSV-1 infectivity plaque assay, pretreated virions, Human Foreskin Fibroblasts; format: cell-based, herpes simplex virus type 1; settings: HFF
Text: FIG. 8 is a line graph showing HSV-1 infectivity plotted against concentration of dUY11. […] As expected, dUY11 treated virions were equally non-infectious for Vero cells or Human Foreskin Fibroblasts.

HSV-1 [6] = test: HSV-1 DNA replication, Southern blot of intracellular viral DNA in infected Vero cells; format: cell-based, herpes simplex virus type 1; settings: 2 μM, 5 PFU/cell, 1, 5, 18, 24 hpi
Protocol: To identify whether the amphipathic nucleoside derivatives inhibited either viral DNA replication or viral gene expression, the ability of the amphipathic nucleoside derivatives to inhibit the accumulation of HSV-1 DNA was tested.

[7] = Dispersion and stability in culture medium; format: physicochemical
Vero cells [8] = system: Vero cells
HSV-2 = test: Mouse vaginal infection with HSV-2 virions exposed to compound; format: in vivo, mice
Text: In order to determine whether an amphipathic nucleoside derivative described herein inhibited viral transmission, a model vaginal infection with a sexually transmitted virus, HSV-2, was used. […] All five mice infected with 3×10^3 infectious virions, and three of the mice infected with 10^3, had to be euthanized between days 7 and 9 due to advanced illness (FIGS. 18E and 19A-B).

HSV-1 [9] = test: HSV-1 replication, cells treated only after infection with untreated virions; settings: post-adsorption treatment of cells
Protocol: HSV-1 inocula were incubated at 37° C. for 0 or 5 minutes with 2 μM of dUY11 (left half of each panel) or with DMSO vehicle (right half of each panel). Vero cells were infected with 0.5; 5; 50; 500; 5,000; or 50,000 PFU of treated HSV-1, as indicated in the cartoon (top panel), washed and overlaid with Dulbecco's Modified Eagle Media (DMEM) supplemented with 5% fetal bovine serum (FBS) and 2% methylcellulose (MC).
Tests were performed to determine whether dUY11 preferentially targets the viral envelope or the cell membrane. […] HSV-1 KOS (200 PFU) were incubated with 0, 0.002, 0.007, 0.02, 0.07, 0.2, 0.7, 2, 7, 20 or 70 μM dUY11 for 5 minutes at 37° C. Vero cells were then infected with so-pretreated virions for 1 hour, washed and overlaid with medium supplemented with 5% FBS and 2% MC (▪). Alternatively, untreated inocula were used to infect untreated Vero cells (▴) or Vero cells pretreated at 37° C. for up to 60 minutes with 0, 2, 7, 20 or 70 μM dUY11 (●). Non-pretreated infected cells were then overlayed with medium supplemented with 5% FBS and 2% MC supplemented with 0, 2, 7, 20 or 70 μM dUY11. […] Error bars represent ranges of three or more experiments.

HSV-2 strain 333 = format: cell-based, HSV type 2; settings: virions pretreated 5 minutes at 37° C.; Vero cells; read-out: IC50, infectivity of HSV-2 strain 333
SIN virus = format: cell-based, Sindbis virus; settings: virions pretreated 5 minutes at 37° C.; Vero cells; read-out: IC50, infectivity of SIN
HSV-1 KOS [10] = test: Binding of radiolabeled HSV-1 virions to Vero cells; format: cell-based, herpes simplex virus type 1; settings: 7 μM; adsorption at 4° C. for 1 hour
Protocol: Infectivity was inhibited by pre-treating HSV-1 virions with the amphipathic nucleoside derivatives before infection. These nucleosides may thus inhibit HSV-1 infectivity by, for example, preventing virion binding to cells. Alternatively, they may disrupt extracellular virions (i.e. have virucidal activities). […] The binding of HSV-1 virions pre-treated with dUY11 was assessed. FIG. 11 is a bar graph and photographic images showing HSV-1 binding (A) and infectivity (B). In parallel studies, [35]S-Methionine radiolabeled (approximately 4×10^5 cpm in 2.5×10^5 PFU) (A) or non-radiolabeled HSV-1 KOS (B) were pretreated with no drug (white bar), 7 μM dUY11 (striped bar), or 100 μg/ml heparin (black bar) for 5 minutes at 37° C. The samples were then cooled on ice. Inocula were diluted (1:20, 1:100) in ice-cold serum-free media supplemented with no drug, 7 μM dUY11, or 100 μg/ml heparin. Vero cells were infected with the so-pretreated virions at 4° C. for 1 hour, washed three times with ice-cold serum-free medium and lysed. Bound virions were quantified by liquid scintillation. Error bars represent ranges of three experiments (A).

HSV-1 [11] = test: Release of HSV-1 DNA/virions by infected Vero cells, Southern blot of extracellular viral DNA; format: cell-based, herpes simplex virus type 1; settings: 2 μM, 1, 5, 18, 24 hpi
HSV-1 KOS [12] = test: HSV-1 infectivity, Vero cells pretreated with compound, untreated virions; format: cell-based, herpes simplex virus type 1; settings: IC50 5.4 μM versus 20 nM
HSV-2 strain 186 = format: cell-based, HSV type 2; settings: virions pretreated 5 minutes at 37° C.; Vero cells; read-out: IC50, infectivity of HSV-2 strain 186
HSV-1 [13] = test: High-affinity binding of HSV-1 virions, heparin competition; format: cell-based, herpes simplex virus type 1; settings: 7 μM
Protocol: dUY11 was next evaluated for its ability to affect high-affinity binding. FIG. 12 is a line graph showing competition of HSV-1 binding to cells by increasing concentration of heparin. […] Inocula were cooled on ice, and then diluted (1:10) in ice-cold serum-free media with or without 7 μM dUY11. Following 15 minute adsorption onto Vero cells, unbound virions were washed away. […] Virions stripped away by these washes were then quantified by liquid scintillation. Error bars represent ranges of two experiments. […] Therefore, the amphipathic nucleoside derivatives inhibit a step between high-affinity binding and viral DNA replication.

[14] = 10^3 or 3×10^3 HSV-2 virions exposed to 70 μM, vaginal infection

O=c1[nH]c(=O)n([C@@H]2O[C@H](CO)C(O)C2O)cc1C#Cc1ccc2c3cccc4cccc(c5cccc1c52)c43 (some centres unmarked) [aUY11, 5-(Perylen-3-ylethynyl)-arabino-uridine]
cytotoxicity (in words) (Vero cells [1]): neither were cytotoxic | IC50 (HSV-1 KOS [2]; Human alphaherpesvirus 1, Vero): 0.075 µM | potency compared with dUY11 (HSV-1 KOS [2]): approximately as potent as dUY11

O=c1[nH]c(=O)n([C@H]2C[C@H](O)[C@@H](CO)O2)cc1C#Cc1ccc2c3cccc4cccc(c5cccc1c52)c43 [dUY11]
HSV-1 entry (RFP expression in reporter cells) (HSV-1 KOS [3]): no detectable fluorescence; also recorded: inhibits HSV-1 entry | pIC50 (VSV): 8.22 | pIC50 (HSV-1 KOS [4]; cells exposed for only 1 hour): 5.41 | reduction in infectivity of virions budded from treated cells (HSV-1 KOS [4]; cells exposed for only 1 hour after removing inoculum): 6 orders of magnitude | effect on infectivity of progeny virions (in words) (HSV-1 KOS [4]; cells treated for 24 or only 1 hours): inhibits the infectivity of progeny virions | reduction in infectivity of virions produced by treated cells (HSV-1 KOS [4]; cells treated for 24 hours after infection, up to 2 μM): 8 orders of magnitude | infectivity with virions pretreated with 700 nM (HSV-1 KOS [5]; 700 nM): fully inhibited | pIC50 (HSV-1 KOS [5]; virions pretreated 5 minutes at 37° C.): 7.70 | safety index (SI) (Vero cells [1]; 50% cytotoxicity not reached): > 7,500 | inhibition of HSV-1 DNA replication (intracellular viral DNA) (HSV-1 [6]): does not inhibit HSV-1 DNA replication; also recorded: does not inhibit viral DNA replication at any time tested | stability in medium ([7]; 150 μM): not stable in medium for long periods | concentration at which homogeneously dispersed in media ([7]; culture media): up to 70,000 nM | cytotoxicity (in words) (Vero cells [8]): non-cytotoxic | mice shedding detectable infectious virus (HSV-2; [14]): None of the ten mice | mice showing clinical signs of infection (HSV-2; [14]): None of the ten mice | protection of mice from vaginal (genital) infection (HSV-2; virions exposed to 70 μM): protects mice from genital infection; also recorded: protects from vaginal infection with HSV-2; also recorded: non-infectious to mice | time to inhibit HSV-1 infectivity by 50% (HSV-1 KOS [2]; 20 nM (IC50) at 37° C., Vero cells): 220 s | infectivity with virions pretreated with 700 nM (HSV-1 KOS [2]; 700 nM, Vero cells): fully inhibited | effect on viral infectivity, plaque assay (HSV-1 KOS [2]; 2 μM, inocula incubated 0 or 5 min at 37° C.): inhibits viral infectivity | infectivity in parallel to binding study (HSV-1 KOS [2]; 7 μM): did abrogate infectivity | IC50 (HSV-1 KOS [2]): 0.05 µM | maximum inhibition, virion pretreatment (HSV-1 KOS [2]; up to 70 μM): 100% | pIC50 (HSV-1 KOS [2]; virions pretreated 5 minutes at 37° C., Vero cells, calculated graphically, read-out: IC50, HSV-1 infectivity): 7.70 and 7.60 and 7.62 | effect on viral replication when added after infection (HSV-1 [9]): no effect on viral replication; also recorded: no effect on HSV-1 replication | pIC50 (HSV-2 strain 333): 7.19 | pIC50 (SIN virus): 7.24 | inhibition of HSV-1 virion binding to cells (HSV-1 KOS [10]): did not inhibit virion binding; also recorded: does not inhibit HSV-1 binding | inhibition of release of HSV-1 DNA (extracellular viral DNA) (HSV-1 [11]): does not inhibit the release of progeny HSV-1 DNA | fold higher concentration for cell pretreatment versus virion pretreatment (HSV-1 KOS [12]): 270 fold | pIC50 (HSV-2 strain 186): 7.31 | virucidal activity (HSV-1 [13]): not virucidal | block of low- or high-affinity binding (HSV-1 [13]; heparin washes 0 to 1,000 μg/ml): does not block either low- or high-affinity binding; also recorded: does not block high-affinity binding

O=c1[nH]c(=O)n([C@H]2CC[C@@H](CO)O2)cc1C#Cc1ccc2c3cccc4cccc(c5cccc1c52)c43 [ddUY11, 5-(Perylen-3-ylethynyl)-2′,3′-dideoxyuridine]
cytotoxicity (in words) (Vero cells [1]): neither were cytotoxic | IC50 (HSV-1 KOS [2]; Human alphaherpesvirus 1, Vero): 0.045 µM | potency compared with dUY11 (HSV-1 KOS [2]): approximately as potent as dUY11
